# Assay results published in ChEMBL document CHEMBL1201862, “PubChem BioAssay data set” (2004).
# Several values for one entry are separate records, joined by “and”; a condition that tells them apart may be missing. Identical values can stand only once. Activity calls are given as the source filed them.
# Tests used:
# Melanocortin receptor 4 = Melanocortin receptor 4 (Homo sapiens, UniProt P32245); type: functional, cell-based;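 also: Cell-based assay with luminescence read-out, confirmatory dose-response testing for agonist activity of biased ligands at MC4R; human U2OS cells with tagged receptor and beta-arrestin; potency of agonists that increase receptor coupling to beta-arrestin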
# Troponin, cardiac muscle [1] = biological target: T1, Troponin, cardiac muscle (Homo sapiens, UniProt P19429+P45379+P63316); test: Fluorescence-based biochemical high throughput dose response assay for activators of the calcium sensitivity of cardiac Regulated Thin Filaments (RTF). [Related pubchem assays (depositor defined):AID493008, AID493018, AID504382, AID504383]; type: protein-complex assay
# [2] = Luminescence Cell-Based Dose Response HTS to Identify Inhibitors of 5'UTR Stem-Loop Driven Prion Protein mRNA Translation in H4 Neuroglioblastoma Cells. [Related pubchem assays: 1827 (Project Summary), 1813 (Primary HTS)]; type: functional
# [3] = viability of PTEN-deleted HCT116 cells – cell-based, HCT116 PTEN knockout, dose response (AID 1047); type: functional;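 also: HCT116 colon tumor cells with PTEN knocked out; cells exposed to compound for 60 hours before readout; potency for loss of cell viability measured by luminescence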
# [4] = biological target: Voltage-gated N-type calcium channel alpha-1B subunit/Amyloid beta A4 precursor protein-binding family A member 1 (Homo sapiens, UniProt Q00975+Q02410); type: protein assay
# [5] = biological target: T2, Tyrosine-protein phosphatase non-receptor type 7 (Homo sapiens, UniProt P35236); test: HTS HePTP Fluorescent Assay using OMFP substrate for In Vitro dose response studies. [Related pubchem assays (depositor defined):AID1059, AID1077, AID1784, AID2068, AID2085, AID435032, AID521]; type: functional
# T2 sequence (P35236 whole entry): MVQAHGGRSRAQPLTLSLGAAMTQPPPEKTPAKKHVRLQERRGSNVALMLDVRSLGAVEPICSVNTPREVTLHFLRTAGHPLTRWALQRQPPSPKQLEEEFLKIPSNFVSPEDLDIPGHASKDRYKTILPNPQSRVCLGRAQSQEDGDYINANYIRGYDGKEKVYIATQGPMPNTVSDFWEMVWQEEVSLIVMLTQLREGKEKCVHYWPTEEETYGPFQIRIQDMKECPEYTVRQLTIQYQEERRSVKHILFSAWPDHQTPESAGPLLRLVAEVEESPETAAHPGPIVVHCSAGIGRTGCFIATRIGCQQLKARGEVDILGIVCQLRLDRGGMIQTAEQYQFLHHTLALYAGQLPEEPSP
# [6] = biological target: T3, Tyrosine-protein phosphatase non-receptor type 12 (Homo sapiens, UniProt Q05209); test: SAR Selectivity Analysis of small molecule inhibitors of PEST using pCAP in a fluorescence assay. [Related pubchem assays (depositor defined):AID1779, AID1784, AID2135]; type: functional
# T3 sequence (Q05209 whole entry): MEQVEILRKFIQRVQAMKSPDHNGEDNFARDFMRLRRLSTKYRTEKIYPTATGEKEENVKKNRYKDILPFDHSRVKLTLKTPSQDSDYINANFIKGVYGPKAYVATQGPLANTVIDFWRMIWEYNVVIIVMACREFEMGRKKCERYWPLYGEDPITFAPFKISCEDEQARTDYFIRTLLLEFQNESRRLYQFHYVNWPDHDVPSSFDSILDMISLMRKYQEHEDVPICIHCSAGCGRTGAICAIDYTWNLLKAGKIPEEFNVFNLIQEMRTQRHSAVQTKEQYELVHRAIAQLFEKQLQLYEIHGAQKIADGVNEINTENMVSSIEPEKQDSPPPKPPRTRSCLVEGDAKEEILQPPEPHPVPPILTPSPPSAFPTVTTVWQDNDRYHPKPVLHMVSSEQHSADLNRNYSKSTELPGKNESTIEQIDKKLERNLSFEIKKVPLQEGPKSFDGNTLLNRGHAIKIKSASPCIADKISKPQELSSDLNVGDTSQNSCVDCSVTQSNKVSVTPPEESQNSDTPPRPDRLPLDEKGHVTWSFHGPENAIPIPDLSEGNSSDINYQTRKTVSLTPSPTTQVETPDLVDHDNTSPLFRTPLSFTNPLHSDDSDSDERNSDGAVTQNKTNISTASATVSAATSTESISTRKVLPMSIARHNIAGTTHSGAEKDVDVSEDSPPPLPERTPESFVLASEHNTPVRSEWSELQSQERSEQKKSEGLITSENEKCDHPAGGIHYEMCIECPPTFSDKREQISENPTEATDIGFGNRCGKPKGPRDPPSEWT
# Troponin, cardiac muscle [7] = biological target: T1, Troponin, cardiac muscle; test: compounds desensitizing RTF to calcium – biochemical, fluorescence, cardiac regulated thin filaments, triplicate IC50, dose response (AID 504742); type: protein-complex assay
# Aminopeptidase N = biological target: T4, Aminopeptidase N (Plasmodium falciparum FcB1/Columbia, UniProt O96935); test: malaria alanyl aminopeptidase activity blockers – biochemical, fluorogenic H-Leu-NHMec substrate, 1536-well (AID 1445); parameters: species or system Plasmodium falciparum 3D7, 3D7
# T4 sequence (O96935 whole entry): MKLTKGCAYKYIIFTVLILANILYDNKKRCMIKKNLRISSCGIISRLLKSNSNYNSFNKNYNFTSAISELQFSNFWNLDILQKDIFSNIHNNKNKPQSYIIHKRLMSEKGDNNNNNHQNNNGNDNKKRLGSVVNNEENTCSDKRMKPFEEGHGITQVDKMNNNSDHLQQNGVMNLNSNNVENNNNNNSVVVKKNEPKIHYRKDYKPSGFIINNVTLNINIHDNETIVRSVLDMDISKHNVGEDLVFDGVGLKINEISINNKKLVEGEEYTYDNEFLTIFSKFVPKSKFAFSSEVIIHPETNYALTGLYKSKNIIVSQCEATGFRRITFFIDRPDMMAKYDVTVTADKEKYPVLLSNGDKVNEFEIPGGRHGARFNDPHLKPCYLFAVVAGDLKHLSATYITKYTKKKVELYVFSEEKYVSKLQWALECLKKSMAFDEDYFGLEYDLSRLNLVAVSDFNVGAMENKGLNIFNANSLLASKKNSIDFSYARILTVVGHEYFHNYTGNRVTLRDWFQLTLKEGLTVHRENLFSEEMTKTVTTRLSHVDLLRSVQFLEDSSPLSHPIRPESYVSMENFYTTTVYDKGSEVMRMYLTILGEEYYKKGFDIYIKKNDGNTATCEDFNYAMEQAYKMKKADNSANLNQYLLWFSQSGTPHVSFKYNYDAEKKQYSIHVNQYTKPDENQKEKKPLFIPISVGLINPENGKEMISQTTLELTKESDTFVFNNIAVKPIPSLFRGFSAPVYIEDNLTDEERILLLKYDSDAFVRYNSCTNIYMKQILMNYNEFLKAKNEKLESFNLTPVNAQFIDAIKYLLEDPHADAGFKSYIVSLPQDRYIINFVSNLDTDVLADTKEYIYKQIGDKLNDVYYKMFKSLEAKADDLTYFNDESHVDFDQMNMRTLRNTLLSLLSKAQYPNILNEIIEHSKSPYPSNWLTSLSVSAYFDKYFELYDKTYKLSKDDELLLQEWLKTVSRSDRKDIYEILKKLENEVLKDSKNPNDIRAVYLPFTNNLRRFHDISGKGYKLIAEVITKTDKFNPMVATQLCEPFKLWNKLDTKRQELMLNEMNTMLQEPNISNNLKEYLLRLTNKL
# Sequence of Voltage-gated N-type calcium channel alpha-1B subunit/Amyloid beta A4 precursor protein-binding family A member 1 (Q00975 whole entry): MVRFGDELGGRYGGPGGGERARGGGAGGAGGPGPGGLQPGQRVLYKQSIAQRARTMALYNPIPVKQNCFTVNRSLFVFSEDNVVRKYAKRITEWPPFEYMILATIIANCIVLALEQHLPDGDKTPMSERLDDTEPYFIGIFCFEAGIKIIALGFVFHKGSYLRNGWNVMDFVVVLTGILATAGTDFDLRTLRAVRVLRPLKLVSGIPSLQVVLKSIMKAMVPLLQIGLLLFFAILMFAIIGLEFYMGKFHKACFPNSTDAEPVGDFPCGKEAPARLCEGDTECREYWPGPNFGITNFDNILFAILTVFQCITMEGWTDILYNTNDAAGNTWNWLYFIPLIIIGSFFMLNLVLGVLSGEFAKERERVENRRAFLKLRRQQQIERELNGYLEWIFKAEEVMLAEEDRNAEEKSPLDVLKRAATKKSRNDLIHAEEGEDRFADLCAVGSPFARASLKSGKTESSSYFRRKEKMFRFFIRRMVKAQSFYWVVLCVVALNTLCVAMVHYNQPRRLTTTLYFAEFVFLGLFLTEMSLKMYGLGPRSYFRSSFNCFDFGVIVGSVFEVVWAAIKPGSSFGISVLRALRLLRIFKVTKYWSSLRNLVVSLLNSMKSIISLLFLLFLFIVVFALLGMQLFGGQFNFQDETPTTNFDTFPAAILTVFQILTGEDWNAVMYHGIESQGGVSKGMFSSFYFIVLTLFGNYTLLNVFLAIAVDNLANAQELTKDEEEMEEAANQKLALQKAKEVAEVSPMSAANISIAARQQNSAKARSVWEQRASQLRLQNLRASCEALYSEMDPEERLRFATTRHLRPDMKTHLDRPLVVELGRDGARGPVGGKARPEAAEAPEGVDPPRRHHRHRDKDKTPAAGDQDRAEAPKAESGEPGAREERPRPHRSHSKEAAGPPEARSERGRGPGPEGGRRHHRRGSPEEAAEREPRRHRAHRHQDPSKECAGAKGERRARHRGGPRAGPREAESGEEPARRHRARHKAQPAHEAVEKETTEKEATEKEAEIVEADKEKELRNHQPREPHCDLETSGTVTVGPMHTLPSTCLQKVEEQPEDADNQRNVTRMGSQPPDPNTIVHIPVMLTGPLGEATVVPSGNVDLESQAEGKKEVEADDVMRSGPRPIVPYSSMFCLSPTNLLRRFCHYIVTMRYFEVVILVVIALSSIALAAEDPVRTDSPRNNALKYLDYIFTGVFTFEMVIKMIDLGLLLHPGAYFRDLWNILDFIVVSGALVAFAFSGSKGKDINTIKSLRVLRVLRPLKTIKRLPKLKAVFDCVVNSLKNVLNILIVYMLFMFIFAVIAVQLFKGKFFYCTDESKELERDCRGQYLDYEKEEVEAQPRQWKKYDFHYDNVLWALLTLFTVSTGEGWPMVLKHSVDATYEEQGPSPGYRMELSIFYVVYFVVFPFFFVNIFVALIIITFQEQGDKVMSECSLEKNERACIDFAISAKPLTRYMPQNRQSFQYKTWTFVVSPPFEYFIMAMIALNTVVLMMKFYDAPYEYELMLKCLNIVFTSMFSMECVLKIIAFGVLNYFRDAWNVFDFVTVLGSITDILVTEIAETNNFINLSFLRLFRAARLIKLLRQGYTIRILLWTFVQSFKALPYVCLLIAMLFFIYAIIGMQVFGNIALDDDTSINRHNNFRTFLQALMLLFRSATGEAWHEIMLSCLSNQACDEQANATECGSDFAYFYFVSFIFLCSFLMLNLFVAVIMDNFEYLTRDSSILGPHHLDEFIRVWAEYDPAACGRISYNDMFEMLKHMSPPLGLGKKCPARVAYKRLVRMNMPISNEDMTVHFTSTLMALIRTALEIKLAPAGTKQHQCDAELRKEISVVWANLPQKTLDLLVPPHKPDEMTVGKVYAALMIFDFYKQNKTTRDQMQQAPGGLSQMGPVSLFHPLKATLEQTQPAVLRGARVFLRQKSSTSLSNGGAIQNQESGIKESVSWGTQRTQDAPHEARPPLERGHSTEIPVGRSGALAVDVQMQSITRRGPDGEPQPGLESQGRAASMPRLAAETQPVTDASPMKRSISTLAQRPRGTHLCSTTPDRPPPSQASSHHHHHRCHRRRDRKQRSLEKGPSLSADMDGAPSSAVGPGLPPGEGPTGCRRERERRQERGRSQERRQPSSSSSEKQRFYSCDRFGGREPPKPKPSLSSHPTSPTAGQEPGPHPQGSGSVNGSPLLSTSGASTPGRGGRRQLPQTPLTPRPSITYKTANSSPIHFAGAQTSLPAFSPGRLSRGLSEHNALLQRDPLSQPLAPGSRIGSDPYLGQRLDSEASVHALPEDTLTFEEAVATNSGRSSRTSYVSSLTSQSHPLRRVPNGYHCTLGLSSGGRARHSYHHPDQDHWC
# Sequence of Voltage-gated N-type calcium channel alpha-1B subunit/Amyloid beta A4 precursor protein-binding family A member 1 (Q02410 whole entry): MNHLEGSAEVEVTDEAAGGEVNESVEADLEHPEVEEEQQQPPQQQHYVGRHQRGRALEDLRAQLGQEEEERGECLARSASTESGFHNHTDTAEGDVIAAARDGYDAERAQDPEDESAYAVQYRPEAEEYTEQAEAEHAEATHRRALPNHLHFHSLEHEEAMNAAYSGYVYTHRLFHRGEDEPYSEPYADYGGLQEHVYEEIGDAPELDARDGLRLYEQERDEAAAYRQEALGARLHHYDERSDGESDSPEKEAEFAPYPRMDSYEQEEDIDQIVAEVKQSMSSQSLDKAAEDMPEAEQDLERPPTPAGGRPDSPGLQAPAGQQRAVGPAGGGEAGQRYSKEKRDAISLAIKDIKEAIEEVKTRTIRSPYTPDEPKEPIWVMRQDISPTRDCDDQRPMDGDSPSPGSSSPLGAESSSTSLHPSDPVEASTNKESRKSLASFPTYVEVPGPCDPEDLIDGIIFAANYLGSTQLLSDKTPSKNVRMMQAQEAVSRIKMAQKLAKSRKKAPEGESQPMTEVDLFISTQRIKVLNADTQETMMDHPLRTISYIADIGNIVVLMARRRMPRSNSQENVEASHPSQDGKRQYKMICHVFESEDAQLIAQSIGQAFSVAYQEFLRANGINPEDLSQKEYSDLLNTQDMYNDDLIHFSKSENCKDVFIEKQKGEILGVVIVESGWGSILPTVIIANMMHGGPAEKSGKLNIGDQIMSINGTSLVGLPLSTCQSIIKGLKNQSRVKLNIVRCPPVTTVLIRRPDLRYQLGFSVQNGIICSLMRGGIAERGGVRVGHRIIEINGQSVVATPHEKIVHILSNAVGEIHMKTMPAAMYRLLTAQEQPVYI
# Sequence of Melanocortin receptor 4 (P32245 whole entry): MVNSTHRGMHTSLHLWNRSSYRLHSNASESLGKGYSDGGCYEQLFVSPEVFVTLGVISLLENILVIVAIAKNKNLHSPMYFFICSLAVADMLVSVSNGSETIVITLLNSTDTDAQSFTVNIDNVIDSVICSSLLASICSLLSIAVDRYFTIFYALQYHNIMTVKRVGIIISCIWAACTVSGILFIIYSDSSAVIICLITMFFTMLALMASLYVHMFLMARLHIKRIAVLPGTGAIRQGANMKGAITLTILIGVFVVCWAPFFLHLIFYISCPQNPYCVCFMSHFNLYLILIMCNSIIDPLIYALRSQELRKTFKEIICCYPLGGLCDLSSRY
smiles,measurement,setting,value
CCN1/C(=C/c2ccc3cc(C)ccc3[n+]2CC)Sc2cc(C)c(C)cc21,EC50,Melanocortin receptor 4,> 3.3 µM (active)
Nc1ccc2nc3c(O)nc(S)nc3nc2c1,EC50,"Troponin, cardiac muscle [1]",1.14 µM (active)
Cc1oc2c(c1C(=O)c1ccccc1)C(=O)C(=O)c1ccccc1-2,EC50,[2],> 120 µM (not active)
same,EC50,[3],2.64 µM (active)
O=C(O)COc1ccc(/C=N/NC(=O)c2ccc(-c3csc(Nc4ccc(Cl)cc4)n3)cc2)cc1,IC50,[4],10.1 µM (active)
same,IC50,[5],> 99 µM (inactive)
same,IC50,[6],334 nM (active) and 325 nM (active)
same,IC50,"Troponin, cardiac muscle [7]",> 71.5 µM (inactive)
CC(/C=C1\SC(=S)N(NS(=O)(=O)c2ccccc2)C1=O)=C\c1ccccc1,IC50,Aminopeptidase N,45.4 µM (active)
